In patent US20260035364A1, “BICYCLIC TETRAHYDROTHIAZEPINE DERIVATIVES” (Hoffmann-La Roche Inc., priority 2022, published 2026):

Experiments:
primary human T-cells = assay: IL2 secretion measurements in CD3-stimulated T-cells; assay type: cell-based; details: Homo sapiens, T-cell, 24 h, CD3 condition; for Emax: IL2 after 24 hours, 20 μM reference compound A1 = 100%, read-out: Emax IL2 (% activation); for EC50: IL2 secretion after 24 hours, read-out: Tcell IL2 CD3 EC50
Procedure: As readouts for T-cell activation, IL2 secretion after 24 hours and proliferation after 5 days was measured. Increases in IL2 secretion and proliferation upon compound treatment were assessed as the % of the maximum of reference compound A1. WO 2016/139181 discloses reference compound A1 as example 70. As a counter screen and to make sure that no unwanted TCR-independent activation was triggered, PBS conditions were run for all compounds.
Expanded primary human T-cells were thawed and cultured in RPMI 1640 (Gibco, #61870-010)+5% human serum (HS, Sigma, #H3667)+1 mM Sodium Pyruvate (Gibco, #11360-039)+50 μM 2-mercaptoethanol (Gibco, #31350-010) and 1× Pen-Strep (Life Technologies, #15140122) medium at density of 2 Mio/ml for 3 hours in 5% CO2, 37° C. and 95% humidity. For coating of plates, […] or PBS++ with CD3 antibody (concentration depending on donor and determined by CD3 titrations) was added 100 μl/well to Poly-D Lysine coated 96-well plates. Plates were sealed and incubated at room temperature for 3 hours on a table-top rocking platform. After incubation, plates were washed once with PBS−− and filled with 40 μl/well culture medium only. Compounds were then added (see next section) to medium only plates. After 3 hours of culturing the T-cells, cells were filtered through a cell strainer (Miltenyi Biotech, #130-041-407), counted again and concentration was adjusted to 1.25 Mio/ml.
Cells were then seeded 80 μl/well to the 40 μl/well including dispensed compounds according to plate layout. By adding cells, compounds were further diluted 1:3, and resulting in 100k cells/120 µl/well. After 24 hours 40 μl of supernatant was collected carefully from the top while not disturbing the cells and transferred into a round bottom 96 well plate. Collected and frozen supernatant was used for detection of IL2 using the IL-2 Human ProQuantum Immunoassay Kit (Invitrogen) or using the Human IL-2 ELISA Kit (Thermo Fisher).
Compound Treatment Compounds were added in a 5 or 6 pt dose response with the Tecan D300e Digital Dispenser, all conditions 3 times more concentrated than the end-concentration, since cells are added afterwards (80p1 cells to 40p1 prepared medium with treatment). The DR was starting at 20 μM or 10 μM final top concentration and a dilution factor of 3.333. The positive control was the reference compound A1 that was added in a dose response as well, additionally to 3 wells of only 20 μM representing the positive stimulator control. All wells were normalized with DMSO to a final concentration of 0.6% (0.2% end-concentration).
The immunoassay is done following the manufacturer's manual (Invitrogen, #A35603).
Additional information: For the immunoassay, MicroAmp™ EnduraPlate™ Optical 384-Well plates are used. Frozen supernatant is thawed and centrifuged for 5 minutes at 1000×g, both steps at 4° C. After centrifugation, required sample amount is taken from the top, and in a separate LightCycler V-bottom plate (working plate) diluted with assay dilution buffer, dilution factor depending on the PBS or CD3 condition but at least 1:3. IL-2 standard and blanks are prepared in the same V-bottom plate, standard with a range of 0.0128-5000 pg/ml (extended version). After preparation, 5 μl of sample dilutions or standard/blanks are transferred to the optical 384-well plate (assay plate) and the 10 μl reaction protocol is being followed. For measurement, the QuantStudio 12K Flex system is used. Raw data is extracted and IL-2 concentrations are calculated with the Thermo Fisher online app (apps.thermofisher.com/apps/proquantum).
ELISA is done following the manufacturer's manual (Thermo Fisher Scientific, #88-7025-88). Additional information: For the ELISA Nunc MaxiSorp 96 well plates are used. Frozen supernatant is thawed and centrifuged for 5 minutes at 1000×g, both steps at 4° C. […]

DGKalpha = DGKalpha (Homo sapiens, UniProt P23743); assay: In vitro DGK inhibition assay (ADP-Glo, liposomes), DGKalpha; assay type: biochemical; set-up: hDGKalpha(1-735)-N-His; His (N); made in house; host or cells: Sf21 insect cells (baculovirus); details: 4 nM DGK α, 25 μM ATP, 125 uM DLG in liposomes, 1 hour reaction
Chain of DGKalpha (P23743 whole entry): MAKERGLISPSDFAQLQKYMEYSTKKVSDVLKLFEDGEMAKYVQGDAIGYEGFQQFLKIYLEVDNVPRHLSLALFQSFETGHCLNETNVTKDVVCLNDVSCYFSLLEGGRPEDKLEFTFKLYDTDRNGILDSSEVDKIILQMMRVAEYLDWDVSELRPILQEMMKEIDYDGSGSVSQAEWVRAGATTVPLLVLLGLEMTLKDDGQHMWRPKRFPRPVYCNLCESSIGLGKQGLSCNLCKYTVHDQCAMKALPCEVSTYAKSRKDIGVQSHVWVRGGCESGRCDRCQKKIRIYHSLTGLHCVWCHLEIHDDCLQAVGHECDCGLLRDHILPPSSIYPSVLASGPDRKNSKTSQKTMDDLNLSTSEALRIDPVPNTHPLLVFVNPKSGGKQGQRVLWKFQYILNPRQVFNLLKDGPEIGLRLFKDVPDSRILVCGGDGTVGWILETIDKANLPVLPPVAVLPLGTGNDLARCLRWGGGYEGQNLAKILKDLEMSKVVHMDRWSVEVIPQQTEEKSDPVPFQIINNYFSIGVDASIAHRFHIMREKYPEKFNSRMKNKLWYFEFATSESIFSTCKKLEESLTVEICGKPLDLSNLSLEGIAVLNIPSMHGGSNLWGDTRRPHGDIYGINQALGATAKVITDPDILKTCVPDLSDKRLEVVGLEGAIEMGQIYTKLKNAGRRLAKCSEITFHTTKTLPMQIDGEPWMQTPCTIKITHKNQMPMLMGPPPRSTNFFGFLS
Procedure: (§1) DGK α and ζ kinases use ATP to phosphorylate the substrate 1,2-dilauroyl-sn-glycerol (DLG, incorporated in the liposomes). ATP is converted to ADP as a result of this enzymatic reaction. After the kinase reaction, an ATP-depletion reagent is added to terminate the kinase reaction and deplete any remaining ATP, leaving only ADP. Second, a detection reagent is added to simultaneously convert ADP to ATP and allow the newly synthesized ATP to be converted to light using a coupled luciferase/luciferin reaction.
Full length DGKA and Z were expressed in Sf21 insect cells by infecting the cells with the baculovirus stock at MOI of 2. Purification of both enzymes was performed as previously described by Takahashi et al., PeerJ, 2018 (Takahashi, D.; Sakane, F. Expression and purification of human diacylglycerol kinase alpha from baculovirus-infected insect cells for structural studies. PeerJ 2018, 6, No. e5449).
(§2) A concentrated liposome solution was prepared in assay buffer without DTT and BSA: 2 mM of DLG in 21 mM of total liposome (2 mM DLG/8 mM PS/11 mM PC). The reaction mixtures contain the assay buffer with a final DLG concentration of 125 uM ATP concentrations of 25 μM (for DGKA assay) or 50 μM (for DGKZ assay). The reactions were started by addition of DGK a and (kinases at 4 nM and 2 nM final concentrations, respectively. After 1 hour reaction, the amount of ADP formed was detected with the ADP-Glo kinase assay (Promega) according to the manufacturer instructions. Compounds were added in 11-points dose response, starting at […], 1:3 dilutions, with a final DMSO concentration of 2%. The multidrop combi was used as a liquid handler and luminescence was read with 0.5 s by the envision reader (PE).

DGKzeta = DGKzeta (Homo sapiens, UniProt Q13574); assay: In vitro DGK inhibition assay (ADP-Glo, liposomes), DGKzeta; assay type: biochemical; set-up: hDGKzeta(1-928)-N-His; His (N); made in house; host or cells: Sf21 insect cells (baculovirus); details: 2 nM DGK ζ, 50 μM ATP, 125 uM DLG in liposomes, 1 hour reaction
Chain of DGKzeta (Q13574 whole entry): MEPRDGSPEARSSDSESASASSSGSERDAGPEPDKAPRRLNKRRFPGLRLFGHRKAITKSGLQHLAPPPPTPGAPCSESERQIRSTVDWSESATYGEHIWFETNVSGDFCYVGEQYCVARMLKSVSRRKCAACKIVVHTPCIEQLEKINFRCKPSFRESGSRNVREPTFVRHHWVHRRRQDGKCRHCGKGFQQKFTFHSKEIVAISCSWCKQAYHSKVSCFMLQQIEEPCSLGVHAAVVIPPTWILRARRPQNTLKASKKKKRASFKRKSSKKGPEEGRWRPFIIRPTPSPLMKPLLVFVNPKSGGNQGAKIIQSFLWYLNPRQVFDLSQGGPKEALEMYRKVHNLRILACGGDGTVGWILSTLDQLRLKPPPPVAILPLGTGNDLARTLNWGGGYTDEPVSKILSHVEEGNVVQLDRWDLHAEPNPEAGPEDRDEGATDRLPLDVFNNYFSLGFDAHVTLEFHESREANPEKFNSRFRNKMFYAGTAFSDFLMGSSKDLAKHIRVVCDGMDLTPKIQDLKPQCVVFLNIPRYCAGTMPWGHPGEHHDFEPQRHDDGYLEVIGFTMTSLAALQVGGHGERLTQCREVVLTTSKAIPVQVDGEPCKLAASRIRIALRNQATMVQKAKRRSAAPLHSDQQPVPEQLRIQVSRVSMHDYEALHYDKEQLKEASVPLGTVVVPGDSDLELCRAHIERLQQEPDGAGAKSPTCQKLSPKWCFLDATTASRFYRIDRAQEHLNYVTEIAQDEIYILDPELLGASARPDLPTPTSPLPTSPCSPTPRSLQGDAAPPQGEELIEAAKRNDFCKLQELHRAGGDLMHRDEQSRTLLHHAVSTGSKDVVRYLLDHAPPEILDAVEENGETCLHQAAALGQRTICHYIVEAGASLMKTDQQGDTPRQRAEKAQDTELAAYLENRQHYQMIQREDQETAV
Procedure: as §1
Purification of both enzymes was performed as previously described by Takahashi et al., PeerJ, 2018 (Takahashi, D.; Sakane, F. Expression and purification of human diacylglycerol kinase alpha from baculovirus-infected insect cells for structural studies. PeerJ 2018, 6, No. e5449).
as §2

| SMILES | Emax (primary human T-cells) [%] | EC50 (primary human T-cells) [µM] | IC50 (DGKalpha) [nM] | IC50 (DGKzeta) [nM] |
| --- | --- | --- | --- | --- |
| CN(Cc1ccccc1)c1ccc(CN2C(=O)[C@@H](N)CS(=O)(=O)c3ccc(-c4nnc(C(C)(C)S(C)(=O)=O)o4)cc32)cc1 [Example 15, (3R)-3-amino-5-[[4-[benzyl(methyl)amino]phenyl]methyl]-7-[5-(1-methyl-1-methylsulfonyl-ethyl)-1,3,4-oxadiazol-2-yl]-1,1-dioxo-2,3-dihydro-1λ6,5-benzothiazepin-4-one] | 99 | 3.53 | 274 | 8030 |
| CC(C)(c1nnc(-c2ccc3c(c2)N(Cc2ccc(OC4CCCC4)cc2)C(=O)[C@@H](N)CS3(=O)=O)o1)S(C)(=O)=O [Example 16, (3R)-3-amino-5-[[4-(cyclopentoxy)phenyl]methyl]-7-[5-(1-methyl-1-methylsulfonyl-ethyl)-1,3,4-oxadiazol-2-yl]-1,1-dioxo-2,3-dihydro-1λ6,5-benzothiazepin-4-one] | 61 | 6.22 | 1510 | 820 |
| CC(C)(c1nnc(-c2ccc3c(c2)N(Cc2ccc(-c4noc(C(F)(F)F)n4)cc2)C(=O)[C@@H](N)CS3(=O)=O)o1)S(C)(=O)=O [Example 17, (3R)-3-amino-7-[5-(1-methyl-1-methylsulfonyl-ethyl)-1,3,4-oxadiazol-2-yl]-1,1-dioxo-5-[[4-[5-(trifluoromethyl)-1,2,4-oxadiazol-3-yl]phenyl]methyl]-2,3-dihydro-1λ6,5-benzothiazepin-4-one] | 153 | 3.42 | 3350 | 3110 |
| CCC(CC)Oc1ccc(CN2C(=O)[C@@H](N)CS(=O)(=O)c3ccc(-c4nnc(C(C)(C)S(C)(=O)=O)o4)cc32)cc1 [Example 19, (3R)-3-amino-5-[[4-(1-ethylpropoxy)phenyl]methyl]-7-[5-(1-methyl-1-methylsulfonyl-ethyl)-1,3,4-oxadiazol-2-yl]-1,1-dioxo-2,3-dihydro-1λ6,5-benzothiazepin-4-one] | 54 | 8.7 | 1810 | 1520 |
| CC(C)(c1nnc(-c2ccc3c(c2)N(Cc2ccc(-c4ccc(C#N)cc4)cc2)C(=O)[C@@H](N)CS3(=O)=O)o1)S(C)(=O)=O [Example 20, 4-[4-[[(3R)-3-amino-7-[5-(1-methyl-1-methylsulfonyl-ethyl)-1,3,4-oxadiazol-2-yl]-1,1,4-trioxo-2,3-dihydro-1λ6,5-benzothiazepin-5-yl]methyl]phenyl]benzonitrile] | 77 | 5 | 1380 | 1450 |
| COc1ccc(-c2ccc(CN3C(=O)[C@@H](N)CS(=O)(=O)c4ccc(-c5nnc(C(C)(C)S(C)(=O)=O)o5)cc43)cc2)cc1 [Example 21, (3R)-3-amino-5-[[4-(4-methoxyphenyl)phenyl]methyl]-7-[5-(1-methyl-1-methylsulfonyl-ethyl)-1,3,4-oxadiazol-2-yl]-1,1-dioxo-2,3-dihydro-1λ6,5-benzothiazepin-4-one] | 89 | 1.24 | 1270 | 1080 |
| COc1cccc(-c2ccc(CN3C(=O)[C@@H](N)CS(=O)(=O)c4ccc(-c5nnc(C(C)(C)S(C)(=O)=O)o5)cc43)cc2)c1 [Example 22, (3R)-3-amino-5-[[4-(3-methoxyphenyl)phenyl]methyl]-7-[5-(1-methyl-1-methylsulfonyl-ethyl)-1,3,4-oxadiazol-2-yl]-1,1-dioxo-2,3-dihydro-1λ6,5-benzothiazepin-4-one] | 63 | 2.21 | > 62500 | 1640 |
| CC(C)(c1nnc(-c2ccc3c(c2)N(Cc2ccc(OCCC(F)(F)F)cc2)C(=O)[C@@H](N)CS3(=O)=O)o1)S(C)(=O)=O [Example 23, (3R)-3-amino-7-[5-(1-methyl-1-methylsulfonyl-ethyl)-1,3,4-oxadiazol-2-yl]-1,1-dioxo-5-[[4-(3,3,3-trifluoropropoxy)phenyl]methyl]-2,3-dihydro-1λ6,5-benzothiazepin-4-one] | 62 | 7.33 | 3080 | 1260 |
| CC(C)(c1nnc(-c2cc3c(cc2F)S(=O)(=O)C[C@H](N)C(=O)N3Cc2ccc(OCC(F)(F)F)cc2)o1)S(C)(=O)=O [Example 24, (3R)-3-amino-8-fluoro-7-[5-(1-methyl-1-methylsulfonyl-ethyl)-1,3,4-oxadiazol-2-yl]-1,1-dioxo-5-[[4-(2,2,2-trifluoroethoxy)phenyl]methyl]-2,3-dihydro-1λ6,5-benzothiazepin-4-one] | 24 | 1.05 | 431 | 503 |
| CC(C)(c1nnc(-c2cc3c(cc2F)S(=O)(=O)C[C@H](N)C(=O)N3Cc2ccc(OC(F)(F)C(F)F)cc2)o1)S(C)(=O)=O [Example 26, (3R)-3-amino-8-fluoro-7-[5-(1-methyl-1-methylsulfonyl-ethyl)-1,3,4-oxadiazol-2-yl]-1,1-dioxo-5-[[4-(1,1,2,2-tetrafluoroethoxy)phenyl]methyl]-2,3-dihydro-1λ6,5-benzothiazepin-4-one] | 159 | 0.545 | 447 | 370 |
| CC(C)(c1nnc(-c2cc3c(cc2F)S(=O)(=O)C[C@H](N)C(=O)N3Cc2ccc(Oc3ccccc3)cc2)o1)S(C)(=O)=O [Example 27, (3R)-3-amino-8-fluoro-7-[5-(1-methyl-1-methylsulfonyl-ethyl)-1,3,4-oxadiazol-2-yl]-1,1-dioxo-5-[(4-phenoxyphenyl)methyl]-2,3-dihydro-1λ6,5-benzothiazepin-4-one] | 215 | 2.6 | 483 | 657 |
